Results published in ChEMBL document CHEMBL5046266, “Synthesis and Evaluation of Structurally Diverse C-2-Substituted Thienopyrimidine-Based Inhibitors of the Human Geranylgeranyl Pyrophosphate Synthase” (J Med Chem, 2022).

What was measured:
[1] = Hepatotoxicity in C57BL/6 mouse assessed as effect on bilirubin level at 0.5 mg/kg, iv administered measured after 7 days; type: toxicity, organism-based; settings: in vivo, 168 h, time 7 day
[2] = Hepatotoxicity in C57BL/6 mouse assessed as effect on bilirubin level at 1 mg/kg, iv administered measured after 7 days; type: toxicity, organism-based; settings: in vivo, 168 h, time 7 day
[3] = Hepatotoxicity in C57BL/6 mouse assessed as effect on bilirubin level at 5 mg/kg, iv administered measured after 7 days; type: toxicity, organism-based; settings: in vivo, 168 h, time 7 day
[4] = Hepatotoxicity in C57BL/6 mouse assessed as effect on bilirubin level at 10 mg/kg, iv administered measured after 7 days; type: toxicity, organism-based; settings: in vivo, 168 h, time 7 day
[5] = Hepatotoxicity in C57BL/6 mouse assessed as effect on alanine aminotransferase level at 0.5 mg/kg, iv administered measured after 7 days; type: toxicity, organism-based; settings: in vivo, 168 h, time 7 day
[6] = Hepatotoxicity in C57BL/6 mouse assessed as effect on alanine aminotransferase level at 1 mg/kg, iv administered measured after 7 days; type: toxicity, organism-based; settings: in vivo, 168 h, time 7 day
[7] = Hepatotoxicity in C57BL/6 mouse assessed as effect on alanine aminotransferase level at 5 mg/kg, iv administered measured after 7 days; type: toxicity, organism-based; settings: in vivo, 168 h, time 7 day
[8] = Hepatotoxicity in C57BL/6 mouse assessed as effect on alanine aminotransferase level at 10 mg/kg, iv administered measured after 7 days; type: toxicity, organism-based; settings: in vivo, 168 h, time 7 day
[9] = Hepatotoxicity in C57BL/6 mouse assessed as effect on aspartate aminotransferase level at 0.5 mg/kg, iv administered measured after 7 days; type: toxicity, organism-based; settings: in vivo, 168 h, time 7 day
[10] = Hepatotoxicity in C57BL/6 mouse assessed as effect on aspartate aminotransferase level at 1 mg/kg, iv administered measured after 7 days; type: toxicity, organism-based; settings: in vivo, 168 h, time 7 day
[11] = Hepatotoxicity in C57BL/6 mouse assessed as effect on aspartate aminotransferase level at 5 mg/kg, iv administered measured after 7 days; type: toxicity, organism-based; settings: in vivo, 168 h, time 7 day
[12] = Hepatotoxicity in C57BL/6 mouse assessed as effect on aspartate aminotransferase level at 10 mg/kg, iv administered measured after 7 days; type: toxicity, organism-based; settings: in vivo, 168 h, time 7 day
[13] = Hepatotoxicity in C57BL/6 mouse assessed as effect on alkaline phosphatase level at 0.5 mg/kg, iv administered measured after 7 days; type: toxicity, organism-based; settings: in vivo, 168 h, time 7 day
[14] = Hepatotoxicity in C57BL/6 mouse assessed as effect on alkaline phosphatase level at 1 mg/kg, iv administered measured after 7 days; type: toxicity, organism-based; settings: in vivo, 168 h, time 7 day
[15] = Hepatotoxicity in C57BL/6 mouse assessed as effect on alkaline phosphatase level at 5 mg/kg, iv administered measured after 7 days; type: toxicity, organism-based; settings: in vivo, 168 h, time 7 day
[16] = Hepatotoxicity in C57BL/6 mouse assessed as effect on alkaline phosphatase level at 10 mg/kg, iv administered measured after 7 days; type: toxicity, organism-based; settings: in vivo, 168 h, time 7 day
[17] = Hepatotoxicity in C57BL/6 mouse assessed as effect on gamma glutamyl transferase level at 0.5 mg/kg, iv administered measured after 7 days; type: toxicity, organism-based; settings: in vivo, 168 h, time 7 day
[18] = Hepatotoxicity in C57BL/6 mouse assessed as effect on gamma glutamyl transferase level at 1 mg/kg, iv administered measured after 7 days; type: toxicity, organism-based; settings: in vivo, 168 h, time 7 day
[19] = Hepatotoxicity in C57BL/6 mouse assessed as effect on gamma glutamyl transferase level at 5 mg/kg, iv administered measured after 7 days; type: toxicity, organism-based; settings: in vivo, 168 h, time 7 day
[20] = Hepatotoxicity in C57BL/6 mouse assessed as effect on gamma glutamyl transferase level at 10 mg/kg, iv administered measured after 7 days; type: toxicity, organism-based; settings: in vivo, 168 h, time 7 day
[21] = Hepatotoxicity in C57BL/6 mouse assessed as effect on amylase level at 0.5 mg/kg, iv administered measured after 7 days; type: toxicity, organism-based; settings: in vivo, 168 h, time 7 day
[22] = Hepatotoxicity in C57BL/6 mouse assessed as effect on amylase level at 1 mg/kg, iv administered measured after 7 days; type: toxicity, organism-based; settings: in vivo, 168 h, time 7 day
[23] = Hepatotoxicity in C57BL/6 mouse assessed as effect on amylase level at 5 mg/kg, iv administered measured after 7 days; type: toxicity, organism-based; settings: in vivo, 168 h, time 7 day
[24] = Hepatotoxicity in C57BL/6 mouse assessed as effect on amylase level at 10 mg/kg, iv administered measured after 7 days; type: toxicity, organism-based; settings: in vivo, 168 h, time 7 day
Mononuclear cell line [25] = type: toxicity, cell-based; settings: human, 72 h, 1 µM
Mononuclear cell line [26] = type: toxicity, cell-based; settings: human, 72 h, 10 µM
Mononuclear cell line [27] = type: toxicity, cell-based; settings: human, 72 h, 0.001 µM, dose 1 nM
Mononuclear cell line [28] = type: toxicity, cell-based; settings: human, 72 h, 0.01 µM, dose 10 nM
[29] = Toxicity in C57BL/6 mouse assessed as effect on aspartate aminotransferase level in serum at 0.5 mg/kg, iv measured after 7 days; type: organism-based; settings: in vivo, 168 h, time 7 day
[30] = Toxicity in C57BL/6 mouse assessed as effect on aspartate aminotransferase level in serum at 5 mg/kg, iv measured after 7 days; type: organism-based; settings: in vivo, 168 h, time 7 day
[31] = AUC (0 to t) in CD rat plasma at 3 mg/kg/day, IV administered measured up to 24 hrs by LC-MS/MS analysis; type: ADME, organism-based; design: route intravenous, dose 3 mg/kg/day, time <=24
[32] = AUC (0 to infinity) in CD rat plasma at 3 mg/kg/day, IV administered measured up to 24 hrs by LC-MS/MS analysis; type: ADME, organism-based; design: route intravenous, dose 3 mg/kg/day, time <=24
[33] = Intrinsic clearance in CD rat plasma at 3 mg/kg/day, IV administered measured up to 24 hrs by LC-MS/MS analysis; type: ADME, organism-based; settings: in vivo
[34] = Volume of distribution at steady state in CD rat at 3 mg/kg/day, IV administered measured up to 24 hrs by LC-MS/MS analysis; type: ADME, organism-based; settings: in vivo, read-out: Vdss
[35] = MRT in CD rat plasma at 3 mg/kg/day, IV administered measured up to 24 hrs by LC-MS/MS analysis; type: ADME, organism-based
[36] = Terminal half life in CD rat at 3 mg/kg/day, IV administered measured up to 24 hrs by LC-MS/MS analysis; type: ADME, organism-based; settings: in vivo, read-out: beta t1/2 (converted)
[37] = Metabolic stability in mouse microsomes assessed as intrinsic clearance; type: ADME, Microsome
[38] = Metabolic stability in rat microsomes assessed as intrinsic clearance; type: ADME, Microsome; settings: read-out: CLH
[39] = Metabolic stability in human microsomes assessed as intrinsic clearance; type: ADME, Microsome; settings: read-out: CLH

SMILES: COc1ccc(NC(=O)c2cccc(-c3nc(NC(P(=O)(O)O)P(=O)(O)O)c4ccsc4n3)c2)cc1F
- Activity [1]: Non-Toxic
- Activity [2]: Non-Toxic
- Activity [3]: Non-Toxic
- Activity [4]: Non-Toxic
- Activity [5]: Non-Toxic
- Activity [6]: Non-Toxic
- Activity [7]: Non-Toxic
- Activity [8]: Non-Toxic
- Activity [9]: Non-Toxic
- Activity [10]: Non-Toxic
- Activity [11]: Non-Toxic
- Activity [12]: Non-Toxic
- Activity [13]: Non-Toxic
- Activity [14]: Non-Toxic
- Activity [15]: Non-Toxic
- Activity [16]: Non-Toxic
- Activity [17]: Non-Toxic
- Activity [18]: Non-Toxic
- Activity [19]: Non-Toxic
- Activity [20]: Non-Toxic
- Activity [21]: Non-Toxic
- Activity [22]: Non-Toxic
- Activity [23]: Non-Toxic
- Activity [24]: Non-Toxic
- Activity (Mononuclear cell line [25]): 17.8%
- Activity (Mononuclear cell line [26]): 21.3%
- Activity (Mononuclear cell line [27]): 79.7%
- Activity (Mononuclear cell line [28]): 77.2%
- Activity [29]: Non-Toxic
- Activity [30]: Non-Toxic
- AUC(0-t) at 24 h [31]: 149 µM·h
- AUC(0-inf) [32]: 155 µM·h
- CL [33]: 0.567 mL/min/kg
- Vd [34]: 0.211 L/kg
- MRT [35]: 6.21 h
- half-life [36]: 5.34 h
- CLH [37]: 27 µL/min/mg
- microsomal CLint [38]: 13 µL/min/mg
- microsomal CLint [39]: 7 µL/min/mg
